Laboratory results taken from a melting point compilation (Tetko et al.; mined from patent text by program, amines drawn as free bases though some values may be those of a salt).

SMILES | melting point [°C]
CCCCCCCCCCCCCCCC(=O)NCCCCCCCCCCCC(=O)O | 119 to 121
Cc1cc(C)c2nc(C3CC3)n(Cc3ncc(C4(C(=O)O)CC=CC4)cn3)c2n1 | 203 to 204
CC(=O)C1CCC2C3CC=C4C=CCCC4(C)C3CCC12C (configuration not stated) | 135 to 136
CC12CCC3c4cc([N+](=O)[O-])c(O)cc4CCC3C1CCC2=O (configuration not stated) | 178 to 180
O=c1cnn(-c2ccc(C(c3ccc(Cl)cc3)c3cc(-c4ccccc4)cs3)c(Cl)c2)c(=O)[nH]1 (configuration not stated) | 90
COC(=O)c1ccc(O)c(N)c1C(=O)OC | 112 to 113
O=C1c2ccccc2C(=O)C2(CC3CCCC(C(F)(F)F)C3)OC12 (configuration not stated) | 85
CCN(CC)CCNC(=O)c1cc(Cl)c(N)cc1O | 134 to 136
CC1CC(c2ccc(CCCCN)cc2)=NNC1=O (configuration not stated) | 118 to 120
CCCCc1nn(-c2cc(NC(C)=O)ccc2Cl)c(=O)n1Cc1ccc(-c2cc(CCC)ccc2S(=O)(=O)NC(=O)OC(C)(C)C)cc1F | < 130
O=C(COC(=O)c1nocc1Br)NCCO[N+](=O)[O-] | 98 to 99
OC(c1cc(-c2ccc(F)cc2)c(-c2ccc(F)cc2)[nH]1)(C(F)(F)F)C(F)(F)F | 112 to 113
O=C(Nc1ccc(C(=O)N2CCc3cn[nH]c3-c3sccc32)cc1)c1ccc(F)cc1Cl | 258 to 266
CC1CCCCN1c1nc(-c2ccc(Cl)cc2)c(CCC(=O)O)o1 (configuration not stated) | 126 to 128
O=C(O)CCc1cn(Cc2ccc(C(=O)NCc3ccc(C(F)(F)F)cc3)cc2)nc1-c1ccccc1 | 151 to 152
CCOC(=O)c1c(N2CCN(C(=O)c3cccs3)CC2)c2sccc2n(Cc2cccc(F)c2)c1=O | 95 to 113
COc1ccc(C2(c3ccc(OC)cc3)CCN(C[C@H]3CN(C)[C@@H]4Cc5c(Br)[nH]c6cccc(c56)[C@@]4(OC)C3)CC2)cc1 | 167 to 172
COC(OC)c1cccc(C=Cc2cccc(-n3cccc3)c2)c1 | 108 to 110
Cc1cc(OCc2coc(/C=C/c3ccc(C(F)(F)F)cc3)n2)ccc1CS(=O)CCc1ccnn1C (configuration not stated) | 161 to 162
CCCCOC(=O)c1cnc(C(=O)O)c(OC)c1 | 96 to 98
O=c1[nH]c(=S)nc2n1C(c1ccc(F)cc1)CO2 (configuration not stated) | 211 to 217
CC(=O)Nc1nc(C#N)cs1 | 185 to 188
NC(=O)c1cccc(-c2ccc(Cl)c3cc(Cc4ccc(F)c(F)c4)sc23)c1 | 185 to 186
CS(=O)(=O)N(c1ccc(Cl)c(C(=O)Nc2cccc3c4c(oc23)CCCC4)c1Cl)S(C)(=O)=O | 237 to 238
CC(C)OC(=O)c1cc(-n2nc3ccc(Cl)cn3c2=O)c(F)cc1Cl | 120 to 123
CCc1nn(Cc2cc(=O)[nH]c(N)n2)c(CC)c1Oc1cc(Cl)cc(Cl)c1 | 238 to 240
COc1cc2c(cc1Nc1ncc(Cl)c(NC3(C(=O)NCC#N)CC3)n1)CCN(CC(=O)N(C)C)CC2 | 120 to 128

SMILES | melting point [°C]
CCCCCCCCc1c(CCCCCCCC)c(-c2ccccc2)n(-c2ccc(C)cc2)c1-c1ccccc1 | 100 to 101
S=C1CN=C(c2ccccc2Cl)c2cc(Cl)ccc2N1 | 251 to 253
O=C(Cc1c(-c2cccnc2)c2cc(CN3CCN(c4ccccc4)CC3)c(Cl)cc2oc1=O)Nc1ccc(F)cc1C(F)(F)F | 202 to 205
CN1CCN(c2cccc3c2C[C@H](NC(=O)c2cccc(OS(C)(=O)=O)c2)CC3)CC1 | 159 to 160
CCCCCCCCC(Oc1ccc(C(=O)CCCCCCC)cc1)C(=O)O (racemic) | 45 to 47
C[C@H](NC(=O)C[C@H](O)C[C@H](O)/C=C/c1c(C2CC2)nc2ccccc2c1-c1ccc(F)cc1)c1ccccc1 | 57 to 76
O=C(O)Cc1c(C(=O)O)c2cc(Oc3ccc(C(F)(F)F)cc3)ccc2n1-c1ccc(OC(F)(F)F)cc1 | 257 to 259
CC(=O)OC1CSC(Oc2c(C#N)ccnc2C)C(OC(C)=O)C1OC(C)=O (configuration not stated) | 109 to 113
CCn1cc(C(=O)O)c(=O)c2ccc(Cl)c(C)c21 | 221 to 222
CC(C)(CNc1ccnc2cc(Cl)ccc12)NCc1cc(C(F)(F)F)cc(C(F)(F)F)c1 | 140 to 141
COc1cc(OC)c2c(=O)[nH]c(-c3ccc(N4CCN(C)CC4)cc3)nc2c1 | 252 to 254
CC(=O)OC1CSC(Oc2ccc(C#N)nc2)C(OC(C)=O)C1OC(C)=O (configuration not stated) | 147
O=C(Nc1nccs1)C(CC1CCCC1)c1ccc(-c2ccncc2)cc1 (configuration not stated) | 165 to 167
O=C1CCN(c2ccncn2)CC1 | 61 to 65
CCCc1c(C(=O)C(C)C)c2ccc(C(N)=O)cc2n1Cc1ccccc1NC(=O)NC | 222 to 223
C=C(OCC)c1cc(N)c(OC)c(C(=O)OC)n1 | 72 to 73
CCCCCCCCCCCCCCOc1ccc([N+](=O)[O-])cc1OCCCCCCCCCCCCCC | 64 to 66
Cc1c(CC(=O)OCCO)cc(-c2ccc(S(C)(=O)=O)cc2)n1-c1ccc(F)cc1 | 129 to 131
Cc1cc(CCCOc2c(C)cc(-c3noc(C(N)=O)n3)cc2C)on1 | 177 to 178
Cc1cc(-c2nn(C3CCCC3)c3c(F)cccc23)ccc1O | 107
COc1ccc(-c2c[nH]cc2C#N)cc1OC | 212 to 214
O=C(Nc1ccc(OCCN2CCCC2=O)c2ccccc12)c1cc(F)cc(N2CCOCC2)c1 | 172 to 173
Cc1cc(Cl)cc(C(=O)NCC2CCO2)c1NC(=O)c1cc(Br)nn1-c1ncccc1Cl (configuration not stated) | 95 to 97
CCc1[nH]c(=O)[nH]c1-c1cc(C(C)(C)C)c(O)c(C(C)(C)C)c1 | 267 to 270
COC(=O)c1cc(S(C)(=O)=O)c(Nc2ccc(S(F)(F)(F)(F)F)cc2)cc1C | 106 to 109
CN1C(=S)N(c2ccc(C#N)c(C(F)(F)F)c2)C(=S)C1(C)C | 211 to 212

Next, values leading:

melting point [°C] | SMILES
198 to 201 | Nc1nonc1-c1nc2ccccc2n1CC(=NO)c1ccc(Br)cc1
59 to 61 | C[C@H](NC(=O)c1cccnc1Oc1ccc(F)cc1)c1cccs1
149 to 151 | O=S(=O)(Nc1cc(Br)nc(Br)c1)c1cccc(C(F)(F)F)c1
267 to 268 | CNC(=O)Cc1nn(-c2ccccc2)c(=O)c2c1c1c(Br)cccc1n2C
75 | c1ccc(CN2CCC(Oc3ccccn3)CC2)cc1
79 to 80 | CCOC(=O)c1ccc(OCC2CCCCC2)c([N+](=O)[O-])c1
203 | CC(=O)Oc1ccc(-c2cc3ccccc3[nH]2)cc1
144 to 148 | COCCc1nc2c(N)nc3cc(OCc4ccccc4)ccc3c2n1CCCCNS(C)(=O)=O
164 to 167 | Nc1ncc([N+](=O)[O-])c(OCc2ccccc2)n1
170 to 172 | CCCCOCc1cc2c3ccccc3[nH]c(=O)n2n1
128 to 130 | C=CCc1c(O)ccc2ccc(OCC(=O)OC)cc12
118 to 120 | Fc1ccc2nc(-c3ccccc3)cc(OCC3CO3)c2c1 (racemic)
102 | COc1ncccc1-c1ccc(OC2SCC(O)C(O)C2O)c(Cl)n1 (configuration not stated)
77 to 78 | CCOC(=S)C(C)Cc1ccc(OCC(=O)O)cc1 (configuration not stated)
96 to 98 | NC(=O)C[C@H](NC(=O)CCc1ccc(OCc2ccccc2)cc1OCc1ccccc1)C(=O)N1CCN(c2ccccc2)CC1
285 to 290 | O=C(O)c1ccc(C(=C2CC3CCC(C2)N3CCc2ccccc2)c2ccccc2)cc1
155 | CSc1nnc(SC)c2cc(-c3ccccc3)ncc12
88 to 93 | COc1ccc(CCNC(=O)CN(c2ccccc2)c2ccccc2)cc1OC
100 to 101 | Cc1oc(-c2ccco2)nc1COc1cccc(CO)c1
168 to 169 | CCOc1c(OC)cccc1-c1nc2ccc(C(=O)O)cc2c(=O)[nH]1
159 to 160 | Clc1ccnc2[nH]c(CCc3ccccc3)cc12
265 to 266 | O=C(O)COc1ccc(CN2C(=O)C3(COc4cc5c(cc43)CCO5)c3ccccc32)cc1 (configuration not stated)

melting point [°C] | SMILES
135 to 136 | O=C(O)C(O)COc1ccc(Cl)cc1 (configuration not stated)
109 to 110 | O=C1CCc2ccccc2CN1CO
104 to 106 | C=CC(=O)OCCc1cc(=O)c(OCc2ccccc2)c(C(=O)c2ccc(Cc3ccc(F)cc3)o2)o1
199 to 200 | CC1CC2=C(N3CN(C)N=C3C(c3ccccc3Cl)=NC2)S1=O (configuration not stated)
105 to 106 | CN(C(=O)OC(C)(C)C)c1cc(Oc2ccc(Oc3ccccc3)cc2)ccc1N
164 to 168 | ClC1=NCc2ccccc2SC1
100 to 101 | COc1ccc(Nc2ccc(OCc3ccccc3)cc2)c(CO)c1
80 to 81 | COC1=C(OC)C(=O)C2=C(CC(CCCCCCCCN3CCN(Cc4ccccc4)CC3)C2)C1=O
205 to 209 | Cn1ccc2cc(NC(=O)Nc3cccc4cccnc34)ccc21
203 to 204 | CN(C)c1ccc(-c2cc3nccnc3[nH]2)cc1CCCO
172 to 175 | CC(=O)OCc1cc(=O)n2c(ccn2-c2ccccc2)n1
203 to 204 | COc1cccc(CNC(=O)c2[nH]c3ccc(Cl)cc3c2S(=O)(=O)c2ccccc2)c1
82 to 83 | CCCc1cn(CC(=O)OCC)nc1OCc1ccc2ccccc2n1
96 to 97 | O=CC(CC(=O)O)NC(=O)C1CCCN2C(=O)CCC(NC(=O)CCc3ccccc3)C(=O)N12 (configuration not stated)
100 to 101 | CC(C)(C)OC(=O)Nc1c(F)cccc1[N+](=O)[O-]
116 to 118 | C[C@H](c1ccccc1CCn1cncn1)N(c1cc(F)ccc1F)S(=O)(=O)c1ccc(Cl)cc1
85 to 87 | OCc1ccc2ccccc2c1OCc1ccccc1
209 to 210 | CN1CC(C(=O)c2nc(Cc3ccc(F)cc3)co2)=C(O)C1=O
254 to 256 | O=C1CCC(N2C(=O)c3cccc(OCc4ccc5ccccc5n4)c3C2=O)C(=O)N1 (configuration not stated)
27 to 28 | N#Cc1cc(OCF)cc([N+](=O)[O-])c1Cl
163 to 165 | CCOC(=O)C1=C(C)NC(COCCn2ccnc2)=C(C(=O)OCC)C1c1ccccc1Cl (configuration not stated)
83 to 84 | CCOC(=S)c1csc2nc(Cc3ccccc3)cn12
